In PMC12261321, “Inhibitors of the Bacterioferritin Ferredoxin Complex Dysregulate Iron Homeostasis and Kill and Biofilm-Embedded Cells” (ACS Infectious Diseases, 2025):
Converted amounts (≈) assume the structure as drawn.

Key:
recombinant Pa BfrB = target: T1, recombinant Pa BfrB (Pseudomonas aeruginosa, UniProt Q9HY79); assay: Dissociation constant (Kd), fluorescence quenching titration of apo Pa BfrB; type: binding, P. aeruginosa
T1 construct: made in house; host or cells: E. coli
Protocol: Measurement of Dissociation Constant (Kd) R ecombinant Pa BfrB was expressed in E. coli and purified as previously reported.19 Apo-BfrB (devoid of heme) was utilized for the measurements to prevent heme-driven fluorescence quenching. A 0.5 mL solution contai ning 0.01 µM apo Pa-BfrB in PBS (pH = 7.4) containing0.5% DMSO was plac ed into a 1 cm quartz cuvette wh ere it was titrated with aliq uots of compound dissolved in a 50% (v/v) PBS/DMSO solution. The fluorescence quenching brought by the addition of each aliquot was monitored with the aid of an Agilent Cary Fluorometer , with excitation at 280 nm, emission at 320- 470 nm, 10 x10 nm slit width, and an average of 5 scans per spectrum. Th e binding assay included at least 8 aliquots spanning from ~ 0.1 […]
A control titration was carried out by titrati ng compound into PBS buffer. The Kd was cal culated by fitting the data to equation S4, w here Fb is the fraction bound and Fmax is the fraction bound at saturating compound concentration.
FFbb = FFmmmmmm ? [ccccmmccccccmmcc ]? (S4) […]

A. baumannii 5075 = assay: MIC, broth microdilution in M63 media; type: cell-based
Protocol: (§1) Measurement of Minimum Inhibitory Concentrations (MIC). The MIC of compounds and select ed antibiotics against three strains of A. baumannii (5075, ATCC 17988, and ATCC 19606) were determined via the broth microdilution method according to Clinical and Laboratory Standard Instit ute (CLSI) guidelines,15 but culturing […]
(§2) To establish a 2-fold dilution series of compound, 985 μ L of diluted cells was mixed with 15 μ L of compound […]
(§3) dissolved in DMSO, such that the resultant solution had the highest concentration of compound or antibiotic tested and 1.5% DMSO. To carry out the serial dilution from the highest compound concentration, a 150 μ L solution of higher concentration compound or antibiotic was mixed with 150 μ L of cell suspension containing 1.5% DMSO in the wells of a 96 well plate.
(§4) Th e 96 well plate was in cubated for 20 hat 35 °C with continuous orbital shaking (205 cpm) in an Epoch2 microplate reader (BioTek), monitoring the growth by […]
(§5) following the OD600. […]
(§6) FFFFFF = MMMMMMAA iiii ccllccbbiiiicccciilliiMMMMMMAA+ MMMMMMBB iiii ccllccbbiiiicccciilliiMMMMMMBB S2 Time Kill Assays. Time-kill assays were performed with A. baumannii 507 5 by the broth macro- dilution method in M63- medium containing 1.5% DMSO. An overnight culture was diluted to approximately 5 x10^5 CFU/mL in fresh M63 media. The test solutions were prepared by adding compound (KM-5- 35, or KM-5- 25) dissolved in DMSO to 5 mL of diluted cell suspension to yield a solution of the desired compound concentration and 1.5% DMSO, or by the addition of antibiotic dissolved in water and a small volume of DMSO to produce the desired

A. baumannii ATCC 17978 = assay: MIC, broth microdilution in M63 media; type: cell-based
Protocol: as §1, §2, §3, §4, §5, §6

A. baumannii ATCC 19606 = assay: MIC, broth microdilution in M63 media; type: cell-based
Protocol: as §1, §2, §3, §4, §5, §6

[1] = Acinetobacter baumannii, 5075, 20 h
[2] = Acinetobacter baumannii, ATCC17978, 20 h
[3] = Acinetobacter baumannii, ATCC19606, 20 h

T1 sequence (Q9HY79 whole entry): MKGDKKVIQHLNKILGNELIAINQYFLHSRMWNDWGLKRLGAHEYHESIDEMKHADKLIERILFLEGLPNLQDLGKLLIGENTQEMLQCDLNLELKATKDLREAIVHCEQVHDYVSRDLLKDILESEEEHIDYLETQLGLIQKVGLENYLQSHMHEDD

Row | SMILES | Kd (recombinant Pa BfrB) | MIC (A. baumannii 5075; 20 h) | MIC (A. baumannii ATCC 17978; 20 h) | MIC (A. baumannii ATCC 19606; 20 h) | MIC (A. baumannii 5075; [1]) | MIC (A. baumannii ATCC 17978; [2]) | MIC (A. baumannii ATCC 19606; [3]) | MIC, A. baumannii 5075 (A. baumannii 5075; 20 h) | MIC, A. baumannii 17978 (A. baumannii ATCC 17978; 20 h) | MIC, A. baumannii 19606 (A. baumannii ATCC 19606; 20 h)
1 | O=C1NC(=O)c2c(NCc3cc(Cl)ccc3O)cccc21 [KM-5-25, 4-((5-Chloro-2-hydroxybenzyl)amino)isoindoline-1,3-dione] | 10 ± 2 µM | 40 µM (≈ 12.1 µg/mL) | 40 µM (≈ 12.1 µg/mL) | 30 µM (≈ 9.08 µg/mL) | – | – | – | – | – | –
2 | O=C1NC(=O)c2c(NCc3cc(F)ccc3O)ccc(Br)c21 [SB-16-67] | 7 ± 1 µM | 40 µM (≈ 14.6 µg/mL) | 20 µM (≈ 7.3 µg/mL) | 30 µM (≈ 11 µg/mL) | – | – | – | – | – | –
3 | O=C1NC(=O)c2c(NCc3cc(Br)ccc3O)cccc21 [KM-5-35, 4-((5-Bromo-2-hydroxybenzyl)amino)isoindoline-1,3-dione] | 9 ± 3 µM | 40 µM (≈ 13.9 µg/mL) | 30 µM (≈ 10.4 µg/mL) | 30 µM (≈ 10.4 µg/mL) | – | – | – | – | – | –
4 | Cc1cc(Br)cc(CNc2cccc3c2C(=O)NC3=O)c1O [SB-16-106] | 3 ± 1 µM | 20 µM (≈ 7.22 µg/mL) | 15 µM (≈ 5.42 µg/mL) | 30 µM (≈ 10.8 µg/mL) | – | – | – | – | – | –
5 | CC(C)(C)c1ccc(O)c(CNc2cccc3c2C(=O)NC3=O)c1 [SB-16-53] | 1 ± 0.2 µM | – | – | – | 30 µM (≈ 9.73 µg/mL) | 30 µM (≈ 9.73 µg/mL) | 30 µM (≈ 9.73 µg/mL) | – | – | –
6 | O=C1NC(=O)c2c(NCc3cc(Br)cc(F)c3O)cccc21 [SB-16-118] | 4 ± 0.3 µM | 20 µM (≈ 7.3 µg/mL) | 30 µM (≈ 11 µg/mL) | 30 µM (≈ 11 µg/mL) | – | – | – | – | – | –
7 | O=C1NC(=O)c2c(NCc3cc(Cl)ccc3O)ccc(Br)c21 [SB-16-51] | 13 ± 2 µM | 10 µM (≈ 3.82 µg/mL) | 15 µM (≈ 5.72 µg/mL) | 15 µM (≈ 5.72 µg/mL) | – | – | – | – | – | –
8 | O=C1NC(=O)c2c(NCc3ccc4c(c3)COC4)cccc21 [SB-17-80] | 11 ± 3 µM | – | – | – | – | – | – | Not active | Not active | Not active
9 | O=C1NC(=O)c2c(NCc3cc(Br)ccc3O)ccc(Cl)c21 [SB-16-124] | 11 ± 1 µM | 20 µM (≈ 7.63 µg/mL) | 20 µM (≈ 7.63 µg/mL) | 20 µM (≈ 7.63 µg/mL) | – | – | – | – | – | –
10 | O=C1NC(=O)c2c(NCc3cccc(F)c3O)cccc21 [EB-5-80] | 49 ± 7 µM | > 100 µM | > 100 µM | > 100 µM | – | – | – | – | – | –
11 | O=C1NC(=O)c2c(NCc3c(O)cccc3F)cccc21 [EB-5-71] | 56 ± 10 µM | 75 µM (≈ 21.5 µg/mL) | 75 µM (≈ 21.5 µg/mL) | 75 µM (≈ 21.5 µg/mL) | – | – | – | – | – | –
12 | O=C1NC(=O)c2c(NCc3cc(Br)cc(O)c3O)cccc21 [SB-16-136] | 7 ± 1 µM | 40 µM (≈ 14.5 µg/mL) | 30 µM (≈ 10.9 µg/mL) | 30 µM (≈ 10.9 µg/mL) | – | – | – | – | – | –
13 | O=C1NC(=O)c2c(NCc3cc(Cl)cc(O)c3O)cccc21 [SB-16-168] | 12 ± 2 µM | – | – | – | 40 µM (≈ 12.7 µg/mL) | > 40 µM | > 40 µM | – | – | –
14 | O=C1NC(=O)c2c(NCc3cc(Br)cc(O)c3O)ccc(Br)c21 [SB-16-250] | 15 ± 3 µM | > 20 µM | > 20 µM | > 20 µM | – | – | – | – | – | –
15 | Cc1cc(Cl)cc(CNc2cccc3c2C(=O)NC3=O)c1O [SB-16-156] | 7 ± 2 µM | > 40 µM | > 40 µM | > 40 µM | – | – | – | – | – | –
